Experimental data as given in article doi:10.1101/2022.05.03.490502v1 (biorxiv, 2022).

Tests used:
[1] = target: T1, LAT1 (hLAT1; LAT1/4F2hc) (Homo sapiens, UniProt Q01650); test: cis-inhibition of [3H]-gabapentin uptake, TREx HEK-hLAT1 cells; type: cell-based
[2] = target: T1, LAT1 (hLAT1; LAT1/4F2hc); test: cell-based; parameters: species or system TREx HEK-hLAT1

T1 sequence (Q01650 whole entry): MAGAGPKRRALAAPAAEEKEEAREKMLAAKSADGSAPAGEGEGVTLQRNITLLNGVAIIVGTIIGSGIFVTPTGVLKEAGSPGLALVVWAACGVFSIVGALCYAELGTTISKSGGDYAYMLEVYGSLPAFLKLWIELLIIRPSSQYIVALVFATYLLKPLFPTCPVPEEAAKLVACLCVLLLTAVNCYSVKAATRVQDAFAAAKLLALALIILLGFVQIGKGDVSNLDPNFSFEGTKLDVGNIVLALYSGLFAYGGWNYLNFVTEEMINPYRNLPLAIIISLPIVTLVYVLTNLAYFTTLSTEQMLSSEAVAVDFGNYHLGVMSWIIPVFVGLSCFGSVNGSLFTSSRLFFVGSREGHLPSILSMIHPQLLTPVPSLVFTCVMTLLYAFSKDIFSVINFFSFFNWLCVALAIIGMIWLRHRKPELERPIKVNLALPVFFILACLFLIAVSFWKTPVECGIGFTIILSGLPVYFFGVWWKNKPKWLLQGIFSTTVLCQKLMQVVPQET
T1 sequence (P08195 103-630 partner): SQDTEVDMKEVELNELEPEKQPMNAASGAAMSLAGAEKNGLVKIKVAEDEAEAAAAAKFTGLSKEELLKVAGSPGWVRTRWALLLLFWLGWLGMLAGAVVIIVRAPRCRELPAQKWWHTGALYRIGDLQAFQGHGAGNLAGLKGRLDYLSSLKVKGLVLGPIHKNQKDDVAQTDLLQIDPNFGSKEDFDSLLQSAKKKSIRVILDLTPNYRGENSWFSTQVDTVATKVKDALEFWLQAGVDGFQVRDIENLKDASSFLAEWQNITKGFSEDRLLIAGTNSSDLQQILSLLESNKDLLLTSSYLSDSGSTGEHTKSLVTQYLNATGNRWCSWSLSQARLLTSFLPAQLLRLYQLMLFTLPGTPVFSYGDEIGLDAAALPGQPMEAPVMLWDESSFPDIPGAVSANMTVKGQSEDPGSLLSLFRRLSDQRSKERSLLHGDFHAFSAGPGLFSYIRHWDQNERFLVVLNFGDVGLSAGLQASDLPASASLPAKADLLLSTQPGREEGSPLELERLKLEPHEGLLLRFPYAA

SMILES	IC50 [1] [µM]	IC50 [2] [µM]
NC(Cc1ccc(O)c(OCc2ccccc2)c1)C(=O)O (centres unmarked) [EN2]	63.3	
N[C@@H](CNC(=O)OCC1c2ccccc2-c2ccccc21)C(=O)O [KH1]	44.4	
N[C@@H](Cc1c[nH]c2ccc(OCc3ccccc3)cc12)C(=O)O [KH13]	11.8	

Continued, values first:

IC50 [1] [µM]	IC50 [2] [µM]	SMILES
	16	N[C@@H](Cc1ccc(/N=N/c2ccccc2)cc1)C(=O)O [EN14]
	91.8	N[C@@H](Cc1ccccc1)C(=O)O [L-Phe]
